In patent publication US12054498B2, “Heteroaromatic macrocyclic ether chemotherapeutic agents” (Nuvalent, Inc., priority 2020, dated 2024):

Tests used:
[1] = target: T1, Ba/F3 cells EML4-ALK wt (variant 1) (Homo sapiens, UniProt Q9UM73); assay: Ba/F3 cell proliferation assay, EML4-ALK wt (variant 1); assay type: cell-based; settings: 72 hours, CellTiter-Glo
T1 construct: echinoderm microtubule-associated protein-like 4 (EML4) gene and the ALK tyrosine kinase domain; host or cells: Ba/F3 (RIKEN), retroviral pMSCV-puro; the other entry of the earlier key: EML4 (Q9HC35, Echinoderm microtubule-associated protein-like 4)
T1 sequence (Q9UM73 with tags, fused parts or gaps): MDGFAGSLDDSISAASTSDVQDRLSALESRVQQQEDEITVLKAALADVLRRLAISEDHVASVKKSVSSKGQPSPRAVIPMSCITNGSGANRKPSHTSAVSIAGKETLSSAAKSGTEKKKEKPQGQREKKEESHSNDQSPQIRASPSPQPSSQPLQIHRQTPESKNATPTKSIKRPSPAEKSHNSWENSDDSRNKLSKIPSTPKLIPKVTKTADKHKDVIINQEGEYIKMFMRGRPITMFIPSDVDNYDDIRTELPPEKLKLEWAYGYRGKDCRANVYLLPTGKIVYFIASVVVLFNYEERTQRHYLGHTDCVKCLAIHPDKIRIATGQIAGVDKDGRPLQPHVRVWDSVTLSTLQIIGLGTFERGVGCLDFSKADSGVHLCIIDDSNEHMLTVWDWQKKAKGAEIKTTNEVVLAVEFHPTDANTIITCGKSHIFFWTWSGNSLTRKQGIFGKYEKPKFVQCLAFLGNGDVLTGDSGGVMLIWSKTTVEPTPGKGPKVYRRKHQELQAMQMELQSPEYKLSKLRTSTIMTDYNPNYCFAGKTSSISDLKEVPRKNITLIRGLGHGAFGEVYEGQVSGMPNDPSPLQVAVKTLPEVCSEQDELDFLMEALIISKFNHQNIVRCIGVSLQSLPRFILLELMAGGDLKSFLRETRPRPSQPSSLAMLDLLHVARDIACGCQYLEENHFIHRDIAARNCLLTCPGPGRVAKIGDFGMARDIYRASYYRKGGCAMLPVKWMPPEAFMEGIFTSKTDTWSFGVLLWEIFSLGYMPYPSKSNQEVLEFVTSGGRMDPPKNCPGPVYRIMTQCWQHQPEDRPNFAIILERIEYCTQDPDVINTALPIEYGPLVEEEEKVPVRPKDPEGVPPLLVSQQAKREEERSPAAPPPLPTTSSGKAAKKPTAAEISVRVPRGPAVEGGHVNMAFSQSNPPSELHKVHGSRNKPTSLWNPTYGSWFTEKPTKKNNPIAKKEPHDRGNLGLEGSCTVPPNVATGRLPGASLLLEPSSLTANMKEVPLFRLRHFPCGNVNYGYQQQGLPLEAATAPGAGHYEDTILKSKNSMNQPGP
How it was run: (§1)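 Ba/F3 lines stably expressing the fusion (retroviral pMSCV-puro, selected by IL-3 withdrawal plus puromycin 0.8 μg/mL, monoclonal) were seeded at 1,000 cells/well, dosed next day with 3-fold compound dilutions, and incubated 72 hours. CellTiter-Glo luminescence gave percent inhibition; IC50 by four-parameter logistic fit.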

[2] = test system: TPM3-NTRK1-wt IC50 / primary target IC50 (e.g. CD74-ROS1-wt); assay: TRKA selectivity in Ba/F3 cells (TRKA potency divided by primary target potency); assay type: cell-based; settings: for TPM3-NTRK1-wt/CD74-ROS1-G2032R selectivity ratio: TRKA potency / CD74-ROS1-G2032R potency; for TPM3-NTRK1-wt/CD74-ROS1-wt selectivity ratio: TRKA potency / CD74-ROS1-wt potency; for TPM3-NTRK1-wt/EML4-ALK-L1196M-G1202R selectivity ratio: TRKA potency / EML4-ALK-L1196M-G1202R potency; for TPM3-NTRK1-wt/EML4-ALK-wt selectivity ratio: TRKA potency / EML4-ALK-wt potency
Experimental: TRKA selectivity was calculated by dividing a compound's TRKA potency by its primary target potency (e.g. TPM3-NTRK1-wt IC50/CD74-ROS1-wt IC50). Compound selectivity can be interpreted by binning ratio values: bin A for very high selectivity, ratio >30-fold; bin B for high selectivity, ratio >10-fold; bin C for moderate selectivity, ratio ≥1; and bin D for low selectivity, ratio <1. […] (nd=not determined).

Ba/F3 cells TPM3-TRKA = target: T2, Ba/F3 cells TPM3-TRKA (Homo sapiens, UniProt P04629); assay: Ba/F3 cell proliferation assay, TPM3-TRKA; assay type: cell-based; settings: 72 hours, CellTiter-Glo, read-out: TPM3-NTRK1-wt IC50
T2 construct: host or cells: Ba/F3 (RIKEN), retroviral pMSCV-puro; the other entry of the earlier key: TPM3 (P06753, Tropomyosin alpha-3 chain)
T2 sequence (P04629 510-796 limits assumed): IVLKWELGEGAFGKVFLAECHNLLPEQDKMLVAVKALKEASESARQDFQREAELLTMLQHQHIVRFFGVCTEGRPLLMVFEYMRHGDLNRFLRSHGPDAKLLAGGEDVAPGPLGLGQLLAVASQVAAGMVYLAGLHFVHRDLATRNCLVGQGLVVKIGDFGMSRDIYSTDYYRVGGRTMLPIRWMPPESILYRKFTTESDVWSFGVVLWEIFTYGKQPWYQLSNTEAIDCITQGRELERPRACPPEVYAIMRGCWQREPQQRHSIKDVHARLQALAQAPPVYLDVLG
How it was run: as §1

[3] = target: T3, Ba/F3 cells CD74-ROS1 G2032R (Homo sapiens, UniProt P08922, G2032R); assay: Ba/F3 cell proliferation assay, CD74-ROS1 G2032R; assay type: cell-based; settings: 72 hours, CellTiter-Glo
T3 construct: fusion of the C-terminus of ROS1 with the N-terminus of various partner proteins; host or cells: Ba/F3 (RIKEN), retroviral pMSCV-puro; the other entry of the earlier key: CD74 (P04233, HLA class II histocompatibility antigen gamma chain)
T3 sequence (P08922 1883-2347 G2032R limits assumed): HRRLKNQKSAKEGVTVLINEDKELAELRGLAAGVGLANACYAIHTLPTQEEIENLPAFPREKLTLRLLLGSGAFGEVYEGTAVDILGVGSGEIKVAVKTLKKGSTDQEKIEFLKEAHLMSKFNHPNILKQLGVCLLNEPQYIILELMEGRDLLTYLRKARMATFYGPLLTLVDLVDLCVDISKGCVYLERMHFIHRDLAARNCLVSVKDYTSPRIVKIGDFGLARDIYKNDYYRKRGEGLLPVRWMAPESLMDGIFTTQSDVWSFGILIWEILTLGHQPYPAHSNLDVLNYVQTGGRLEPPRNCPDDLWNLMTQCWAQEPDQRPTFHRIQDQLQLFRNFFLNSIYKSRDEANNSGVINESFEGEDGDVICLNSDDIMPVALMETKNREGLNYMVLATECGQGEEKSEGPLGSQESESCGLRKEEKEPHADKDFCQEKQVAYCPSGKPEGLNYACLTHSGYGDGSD
How it was run: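 Cells were seeded 1 day, then exposed to a 3-fold compound dilution series for 72 hours. Viability was read by CellTiter-Glo luminescence; IC50 came from four-parameter logistic fitting of percent inhibition.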

TRKA-wt = target: T4, TRKA-wt (Homo sapiens, UniProt P04629); assay: Biochemical kinase assay, TRKA-wt kinase domain; settings: apparent inhibitory constant, Morrison equation; ATP 2 mM in substrate solution; read-out: TRKA-wt Ki^app
T4 construct: or TRKA-wt (1 nM, BPS Bio, 40280) kinase domains in buffer; purchased BPS Bio 40280
T4 sequence (P04629 510-781 limits assumed): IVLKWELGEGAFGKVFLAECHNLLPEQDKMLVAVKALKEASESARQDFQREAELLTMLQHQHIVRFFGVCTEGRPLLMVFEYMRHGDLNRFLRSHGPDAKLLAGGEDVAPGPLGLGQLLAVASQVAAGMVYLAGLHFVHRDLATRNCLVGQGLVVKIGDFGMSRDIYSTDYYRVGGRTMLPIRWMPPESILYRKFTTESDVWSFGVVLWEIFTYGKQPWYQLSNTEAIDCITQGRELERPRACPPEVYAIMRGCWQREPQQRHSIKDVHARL
Experimental: (§2) First, 250 nL of compound dissolved in DMSO (100-fold of the desired concentration) was dispensed into a 384-well plate. A 12.5 μL substrate solution containing ATP (2 mM) and fluorogenic phosphorylation substrate AQT0101 (26 μM for ALK and ROS1, AssayQuant) or AQT0104 (26 μM for TRKA, AssayQuant) in buffer (50 mM HEPES pH 7.5, 0.01% Brij-35, 0.5 mM EGTA, 10 mM MgCl2) was added and mixed thoroughly. Then, a 12.5 μL kinase solution containing ALK-wt (1.5 nM, Carna, 08-518), ALK ALK L1196M/G1202R (3 nM, SignalChem, A19-12NG), ROS1-wt (0.6 nM, Carna, 08-163), ROS1-G2032R (0.5 nM, SignalChem, R14-12BG), or TRKA-wt (1 nM, BPS Bio, 40280) kinase domains in buffer (50 nM HEPES pH 7.5, 0.01% Brij-35, 2% glycerol, 0.4 mg/mL BSA, 0.5 mM EGTA, and 10 mM MgCl2) was added and mixed thoroughly. The plate was sealed and read by SpectraMax Paradigm at λ=485 nm every 2 minutes for 120 minutes at 30° C. Initial rates of reaction (v) were calculated from the change in fluorescence intensity over time during the initial, linear portion of the reaction. Finally, apparent inhibitory constants (Ki^app) were determined from regression of v and I (inhibitor concentration) to Morrison Equation (E=enzyme concentration): […]

ALK-wt = target: T5, ALK-wt (Homo sapiens, UniProt Q9UM73); assay: Biochemical kinase assay, ALK-wt kinase domain; settings: apparent inhibitory constant, Morrison equation; ATP 2 mM in substrate solution; read-out: ALK-wt Ki^app
T5 construct: purchased Carna 08-518
T5 sequence (Q9UM73 1116-1392 limits assumed): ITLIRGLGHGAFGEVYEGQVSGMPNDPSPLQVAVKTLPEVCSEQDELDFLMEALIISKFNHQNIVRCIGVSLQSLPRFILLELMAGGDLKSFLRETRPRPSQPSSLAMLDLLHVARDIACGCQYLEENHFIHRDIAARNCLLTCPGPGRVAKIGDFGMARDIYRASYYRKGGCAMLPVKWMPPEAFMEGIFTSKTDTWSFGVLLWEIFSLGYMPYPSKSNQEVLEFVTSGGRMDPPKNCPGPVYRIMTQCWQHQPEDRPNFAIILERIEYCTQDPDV
Experimental: as §2

ALK L1196M/G1202R = target: T6, ALK L1196M/G1202R (Homo sapiens, UniProt Q9UM73, G1202R/L1196M); assay: Biochemical kinase assay, ALK L1196M/G1202R kinase domain; settings: apparent inhibitory constant, Morrison equation; ATP 2 mM in substrate solution; read-out: ALK-L1196M-G1202R Ki^app
T6 construct: purchased SignalChem A19-12NG
T6 sequence (Q9UM73 1116-1392 L1196M/G1202R limits assumed): as the sequence (Q9UM73 1116-1392 limits assumed) above, with L81M, G87R counted along it
Experimental: as §2

[4] = target: T7, Ba/F3 cells CD74-ROS1 wild-type (wt) (Homo sapiens, UniProt P08922); assay: Ba/F3 cell proliferation assay, CD74-ROS1 wild-type; assay type: cell-based; settings: 72 hours, CellTiter-Glo
T7 construct: fusion of the C-terminus of ROS1 with the N-terminus of various partner proteins; host or cells: Ba/F3 (RIKEN), retroviral pMSCV-puro; the other entry of the earlier key: CD74 (P04233, HLA class II histocompatibility antigen gamma chain)
T7 sequence (P08922 1883-2347 limits assumed): as the sequence (P08922 1883-2347 G2032R limits assumed) above, with R150G counted along it
Experimental: The virus was used to infect Ba/F3 cells (RIKEN) at multiplicity of infection=1 for 1 day. Infected cells were rescued in media (RPMI-1640 with 10% fetal bovine serum and 1% streptomycin and penicillin) supplemented with mouse IL-3 (10 ng/mL) for 2 days, and stable cell lines were selected by IL-3 withdrawal and puromycin (0.8 μg/mL) for 7 days. Monoclones were selected by single-cell dilution in IL-3-free medium containing puromycin (0.8 μg/mL).
Cell Proliferation Assay Stable cells were plated at 1,000 cells/well (40 μL) in a 384-well plate for 1 day.
Test compounds (40 nL) were then added in a 3-fold dilution series using the TECAN EVO200 liquid handler and incubated for 72 hours. Plates were equilibrated at room temperature for 15 minutes followed by addition of 40 μL CellTiter-Glo reagent (Promega).
Luminescence was measured on a plate reader. Half-maximal inhibitory concentration (IC50) was calculated from percent inhibition and inhibitor concentration using four-parameter logistic regression. […] (nd=not determined).

ROS1-G2032R = target: T8, ROS1-G2032R (Homo sapiens, UniProt P08922, G2032R); assay: Biochemical kinase assay, ROS1-G2032R kinase domain; settings: apparent inhibitory constant, Morrison equation; ATP 2 mM in substrate solution; read-out: ROS1-G2032R Ki^app
T8 construct: purchased SignalChem R14-12BG
T8 sequence (P08922 1945-2222 G2032R limits assumed): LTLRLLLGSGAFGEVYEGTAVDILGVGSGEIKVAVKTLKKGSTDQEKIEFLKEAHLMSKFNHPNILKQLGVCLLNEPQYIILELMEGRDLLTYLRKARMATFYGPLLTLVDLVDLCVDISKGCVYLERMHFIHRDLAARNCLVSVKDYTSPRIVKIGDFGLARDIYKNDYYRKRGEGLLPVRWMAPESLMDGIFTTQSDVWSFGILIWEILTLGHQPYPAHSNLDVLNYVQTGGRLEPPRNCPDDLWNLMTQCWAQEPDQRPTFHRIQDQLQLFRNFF
Experimental: as §2, with “Then, a 12.5 μL kinase solution containing ALK-wt (1.5 nM, Carna, 08-518), ALK ALK L1196M/G1202R (3 nM, SignalChem, A19-12NG), ROS1-wt (0.6 nM, Carna, 08-163), ROS1-G2032R (0.5 nM, SignalChem, R14-12BG), or TRKA-wt (1 nM, BPS Bio, 40280) kinase domains in buffer (50 nM HEPES pH 7.5, 0.01% Brij-35, 2% glycerol, 0.4 mg/mL BSA, 0.5 mM EGTA, and 10 mM MgCl2) was added and mixed thoroughly.” left out

ROS1-wt = target: T9, ROS1-wt (Homo sapiens, UniProt P08922); assay: Biochemical kinase assay, ROS1-wt kinase domain; settings: apparent inhibitory constant, Morrison equation; ATP 2 mM in substrate solution; read-out: ROS1-wt Ki^app
T9 construct: purchased Carna 08-163
T9 sequence (P08922 1945-2222 limits assumed): as the sequence (P08922 1945-2222 G2032R limits assumed) above, with R88G counted along it
Experimental: as §2, with “Then, a 12.5 μL kinase solution containing ALK-wt (1.5 nM, Carna, 08-518), ALK ALK L1196M/G1202R (3 nM, SignalChem, A19-12NG), ROS1-wt (0.6 nM, Carna, 08-163), ROS1-G2032R (0.5 nM, SignalChem, R14-12BG), or TRKA-wt (1 nM, BPS Bio, 40280) kinase domains in buffer (50 nM HEPES pH 7.5, 0.01% Brij-35, 2% glycerol, 0.4 mg/mL BSA, 0.5 mM EGTA, and 10 mM MgCl2) was added and mixed thoroughly.” left out

[5] = target: T10, Ba/F3 cells EML4-ALK L1196M/G1202R (variant 1) (Homo sapiens, UniProt Q9UM73, G1202R/L1196M); assay: Ba/F3 cell proliferation assay, EML4-ALK L1196M/G1202R (variant 1); assay type: cell-based; settings: 72 hours, CellTiter-Glo
T10 construct: echinoderm microtubule-associated protein-like 4 (EML4) gene and the ALK tyrosine kinase domain; host or cells: Ba/F3 (RIKEN), retroviral pMSCV-puro; the other entry of the earlier key: EML4 (Q9HC35, Echinoderm microtubule-associated protein-like 4)
T10 sequence (Q9UM73 with tags, fused parts or gaps L1196M/G1202R): as the sequence (Q9UM73 with tags, fused parts or gaps) above, with L635M, G641R counted along it
How it was run: as §1

IC50 [1] [nM]	IC50 (Ba/F3 cells TPM3-TRKA) [nM]	IC50 [3] [nM]	Ki (TRKA-wt) [nM]	Ki (ALK-wt) [nM]	Ki (ALK L1196M/G1202R) [nM]	IC50 [4] [nM]	Ki (ROS1-G2032R) [nM]	Ki (ROS1-wt) [nM]	IC50 [5] [nM]	Compound	TPM3-NTRK1-wt/CD74-ROS1-G2032R selectivity ratio [2]	TPM3-NTRK1-wt/CD74-ROS1-wt selectivity ratio [2]	TPM3-NTRK1-wt/EML4-ALK-L1196M-G1202R selectivity ratio [2]	TPM3-NTRK1-wt/EML4-ALK-wt selectivity ratio [2]
0.1 to 50	> 500	0.1 to 50	50 to 500	< 50	< 50	0.1 to 50	< 50	< 50	50 to 500	CCn1ncc2c1-c1cnc(N)c(c1)O[C@H](C)c1cc(F)ccc1-c1ccnn1C2 [Example 1, (19R)-3-ethyl-16-fluoro-19-methyl-20-oxa-3,4,8,9,23-pentaazapentacyclo[19.3.1.0^2,^6.0^8,^12.0^13,^18]pentacosa-1(24),2(6),4,9,11,13,15,17,21(25),22-decaen-22-amine]	A (bin A for very high selectivity, ratio >30-fold)	A (bin A for very high selectivity, ratio >30-fold)	B (bin B for high selectivity, ratio >10-fold)	A (bin A for very high selectivity, ratio >30-fold)
	> 500	0.1 to 50	> 500	< 50	50 to 500		50 to 500	< 50	> 500	CCn1ncc2c1-c1cnc(N)c(c1)O[C@H](C)c1cc(F)ccc1-c1cnnn1C2 [Example 2, (19R)-3-ethyl-16-fluoro-19-methyl-20-oxa-3,4,8,9,10,23-hexaazapentacyclo[19.3.1.0^2,^6.0^8,^12.0^13,^18]pentacosa-1(24),2(6),4,9,11,13,15,17,21 (25),22-decaen-22-amine]	A (bin A for very high selectivity, ratio >30-fold)		C (bin C for moderate selectivity, ratio ≥1)	
0.1 to 50	> 500	0.1 to 50	50 to 500	< 50	< 50	0.1 to 50	< 50	< 50	50 to 500	CCn1ncc2c1-c1cnc(N)c(c1)O[C@H](C)c1cc(F)ccc1-c1c(C#N)cnn1C2 [Example 3, (19R)-22-amino-3-ethyl-16-fluoro-19-methyl-20-oxa-3,4,8,9,23-pentaazapentacyclo[19.3.1.0^2,^6.08,^12.0^13,^18]pentacosa-1(24),2(6),4,9,11,13,15,17,21(25),22-decaene-11 carbonitrile]	A (bin A for very high selectivity, ratio >30-fold)	A (bin A for very high selectivity, ratio >30-fold)	C (bin C for moderate selectivity, ratio ≥1)	A (bin A for very high selectivity, ratio >30-fold)
